{
  "source": "paper PMC12922749",
  "about": "(Science Advances, 2026)",
  "test_in_all_cases": "SPR",
  "type_in_all_cases": "binding",
  "key": {"Nur77 [1]": {"biological_target": "Nur77"}, "Nur77 [2]": {"biological_target": "Nur77", "remark": "listed apart in the source"}, "Nur77 [3]": {"biological_target": "Nur77", "remark": "listed apart in the source"}},
  "note": "Read-outs that look alike come from different tables or passages of the source.",
  "data": [
    {"compound": "CCCCC/C=C\\C[C@@H](O)/C=C/C=C\\C/C=C\\CCCC(=O)O", "note": "[12R-HETE]", "values": [
      {"measurement": "Kd", "setting": "Nur77 [1]", "result": 1.44, "unit": "µM"}
    ]},
    {"compound": "CCCCC/C=C\\C[C@H](O)/C=C/C=C\\C/C=C\\CCCC(=O)O", "note": "[12S-HETE]", "values": [
      {"measurement": "Kd", "setting": "Nur77 [2]", "result": 13.9, "unit": "µM"}
    ]},
    {"compound": "CCCCCCCC(=O)c1c(O)cc(O)cc1CC(=O)OCC", "note": "[Cytosporone B]", "values": [
      {"measurement": "Kd", "setting": "Nur77 [3]", "result": 28.9, "unit": "µM"}
    ]}
  ]
}
